Converted amounts (≈) assume the structure as drawn.

These results are taken from patent US10851400B2, “Assay for high-throughput identification of therapeutic compounds” (priority 2016, dated 2020).

Assay [1] deals with ESKAPE pathogens. As to the kind of experiment: Broth MIC assay of K15 against the panel of seven ESKAPE pathogens. Format: cell-based. To be noted: seven pathogens tested. The procedure: (§1) Peptoid K15 was analyzed via a traditional broth minimum inhibitor concentration (MIC) assay against seven different ESKAPE pathogens (Acinetobacter baumanii, ATCC 19606; Enterococcus faecalis, ATCC 29212; Enterococcus faecium, ATCC 19434; Escherichia coli, ATCC 25922; Klebsiella pneumoniae, ATCC 700603; Pseudomonas aeruginosa, ATCC 27853; Staphylococcus aureus, ATCC 29213). For each of the bacterial strains screened in the ESKAPE panel, 1-3 isolated colonies were collected from a TSA plate by a flame sanitized wire loop and resuspended in 5 mL of TSB. The solutions were incubated at 37° C. for 18-24 hours. After the growth period, the turbidity was measured at 600 nm and adjusted to an optical density of 0.08-0.13 by diluting with TSB for an approximate concentration of 1×10^8 CFU/mL. Once the desired OD was achieved, 20 μL of the bacteria suspension were diluted 1:20 in 380 μL Cation Adjusted Mueller-Hinton broth (CAMHB) for a final concentration of 5×10^6 CFU/mL.
(§2) 4 μL of a 10 mM stock of K15 were diluted in […] CAMHB for each bacterial strain assayed (a total of 28 μL stock in 2.478 mL broth for ESKAPE panel). […]
(§3) The prepared plates were incubated for another 18-24 hours. Their respective absorbance at 600 nm was analyzed on a SpectraMax M5 Plate Reader. […] Absorbance at 555, 570, and 585 nm was analyzed to determine viable cells having survived treatment by the antimicrobial compound. […]

For assay [2], the system named is Acinetobacter baumanii, ATCC 19606. As to the kind of experiment: Broth minimum inhibitory concentration (MIC) assay of K15. The assay is classed as cell-based, Acinetobacter baumannii. The note with it: A. baumannii; broth MIC in CAMHB, 18-24 hours. The protocol: as §1, §2, §3
Assay [3] concerns E. coli (ATCC 25922). As to the kind of experiment: PLAD assay, zone of inhibition around beads in soft agar.
Assay [4] relates to Enterococcus faecium, ATCC 19434. The assay is described as follows: Broth minimum inhibitory concentration (MIC) assay of K15. The assay is classed as cell-based. To be noted: E. faecium; broth MIC in CAMHB, 18-24 hours. The protocol:
as §1, §2, §3

Regarding `CCCCCCCCCCCCCNCC(=O)N(CCN)CC(=O)N(CC(N)=O)C(C)c1ccccc1` (stereo not drawn) [K15, NTri-Nae-NPea], the “antimicrobial efficacy against the ESKAPE pathogens” value in assay [1] is given as “modest efficacy against six of the seven pathogens tested”. The MIC in assay [2] and in assay [4] was 25 µg/mL (≈ 48.3 µM) in each case. For the same compound, the zone of inhibition entry in assay [3] (proof-of-concept library on PLAD linker, 14 mM TCEP, 37° C. for 18 hours) is listed as “largest average zone of inhibition”.
“NTri-NLys-NPea-NPea-NLys [C134mer, reference compound]”: the zone of inhibition result in assay [3] (PLAD linked C134mer beads, DTT, BME or TCEP at 0, 2, 6, 10, and 14 mM) was “concentration dependent zones of inhibition”.
